Experimental data taken from patent publication US12714677B2, “Dual chamber syringe for administering a hormone encapsulated by a hydrogel” (VITALTE LIFESCIENCES INC., priority 2024, dated 2026).

Columns and labels:
[1] = Release assay on E2 microspheres (same manner as discs); assay type: physicochemical; details: day 3
Experimental: Release assays on the E2 microspheres were conducted in the same manner as described above for the discs.
(§1) Low standards were removed from the analysis.

[2] = E2 release from hydrogel discs, E2 pellets and E2 powder into incubation medium (ELISA); assay type: physicochemical; details: 50 mL incubation medium, 37° C., 6 rpm
Source text: as §1

[3] = cited from earlier work

## C[C@]12CC[C@@H]3c4ccc(O)cc4CC[C@H]3[C@@H]1CC[C@@H]2O [E2 powder, Beta-estradiol]
[1]
  E2 release level: approximates the saturation level of E2 in the incubation medium
[2]; day 1 / 24 hours
  E2 released into incubation media (concentration): about 1.85 mg/L
[2]; day 2 / 48 hours
  E2 released into incubation media (concentration): reached the saturation point of the incubation media
[2]; day 3 / 72 hours
  E2 released into incubation media (accumulated concentration): maintained the saturation point concentration

## C[C@]12CC[C@H]3[C@@H](CCC4=CC(=O)CC[C@@]43C)[C@@H]1CC[C@@H]2O [T, Testosterone]
[3]
  solubility factor in water compared to E2: much higher
